Values after ≈ are worked out from the molar mass of the structure shown.
Experiments:
[1] = Solubility of the compound in pH 6.5 phosphate buffer containing 5% DMSO
[2] = target: T1, Indoleamine 2,3-dioxygenase 1 (Homo sapiens, UniProt P14902); experiment: Inhibition of IDO1 (unknown origin) using L-tryptophan substrate incubated for 60 mins in presence of 0.01% Triton-X by HPLC
[3] = target: T1, Indoleamine 2,3-dioxygenase 1; experiment: Inhibition of IDO1 (unknown origin) using L-tryptophan substrate incubated for 60 mins by HPLC
[4] = target: Tryptophan 2,3-dioxygenase (Mus musculus, UniProt P48776); experiment: Inhibition of mouse TDO expressed in mouse P815B cells using L-tryptophan substrate incubated for 24 hrs by HPLC based cellular assay; assay type: cell-based; conditions: p815b
[5] = Cytotoxicity against mouse P815B cells after 24 hrs by MTS/PMS assay
[6] = target: Indoleamine 2,3-dioxygenase 1 (Mus musculus, UniProt P28776); experiment: Inhibition of mouse IDO1 expressed in mouse P815B cells using L-tryptophan substrate incubated for 18 hrs by HPLC based cellular assay; assay type: cell-based; conditions: p815b
[7] = phosphate buffer containing 5% DMSO

T1 sequence (P14902 whole entry): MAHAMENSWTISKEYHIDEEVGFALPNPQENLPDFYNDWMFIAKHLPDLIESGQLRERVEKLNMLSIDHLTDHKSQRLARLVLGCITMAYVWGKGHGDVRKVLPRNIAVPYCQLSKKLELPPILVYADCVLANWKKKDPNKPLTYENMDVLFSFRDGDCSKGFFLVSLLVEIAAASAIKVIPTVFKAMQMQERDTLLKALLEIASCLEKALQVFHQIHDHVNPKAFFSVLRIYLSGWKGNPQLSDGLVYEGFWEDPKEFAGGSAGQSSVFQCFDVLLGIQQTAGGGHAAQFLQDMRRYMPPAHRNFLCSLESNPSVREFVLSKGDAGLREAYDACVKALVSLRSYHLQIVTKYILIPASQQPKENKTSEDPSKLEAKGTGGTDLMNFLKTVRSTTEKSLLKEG
Sequence of Tryptophan 2,3-dioxygenase (P48776 whole entry): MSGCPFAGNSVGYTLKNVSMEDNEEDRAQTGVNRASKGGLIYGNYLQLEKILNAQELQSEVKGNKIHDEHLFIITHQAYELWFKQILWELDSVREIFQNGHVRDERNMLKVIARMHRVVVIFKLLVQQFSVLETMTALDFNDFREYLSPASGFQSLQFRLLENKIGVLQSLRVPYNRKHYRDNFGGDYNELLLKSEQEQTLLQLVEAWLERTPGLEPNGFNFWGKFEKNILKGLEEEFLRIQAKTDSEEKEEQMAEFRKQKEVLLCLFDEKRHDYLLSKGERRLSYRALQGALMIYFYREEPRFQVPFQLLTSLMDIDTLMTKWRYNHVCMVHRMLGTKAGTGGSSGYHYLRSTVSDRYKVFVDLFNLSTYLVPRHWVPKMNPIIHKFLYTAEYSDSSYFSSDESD
Sequence of Indoleamine 2,3-dioxygenase 1 (Mus musculus, UniProt P28776) (P28776 whole entry): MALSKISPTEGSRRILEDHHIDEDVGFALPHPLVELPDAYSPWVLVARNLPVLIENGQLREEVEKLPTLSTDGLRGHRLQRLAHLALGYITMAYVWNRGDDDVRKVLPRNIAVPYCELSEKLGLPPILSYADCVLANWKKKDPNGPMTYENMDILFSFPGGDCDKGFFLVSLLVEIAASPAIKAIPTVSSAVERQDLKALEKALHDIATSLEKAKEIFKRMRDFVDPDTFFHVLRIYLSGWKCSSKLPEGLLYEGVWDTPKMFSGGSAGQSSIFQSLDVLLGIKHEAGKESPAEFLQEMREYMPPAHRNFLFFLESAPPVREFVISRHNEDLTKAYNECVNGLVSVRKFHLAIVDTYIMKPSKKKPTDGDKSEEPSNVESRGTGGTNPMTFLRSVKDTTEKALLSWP

Cc1cc(NS(=O)(=O)c2ccc(Cl)s2)no1
solubility [1, 7]: 1000 µM (≈ 279 µg/mL)

Oc1nc(=S)ccn1-c1nc(-c2ccccc2)sc1-c1ccccc1
solubility [1, 7]: 50 µM (≈ 18.2 µg/mL)

c1ccc(CCn2ccnc2)cc1
IC50 [2]: Not Active
solubility [1, 7]: > 1000 µM

COC(=O)C1=C(C)NC(C)=C(C(=O)OC)C1c1ccccc1[N+](=O)[O-] [NIFEDIPINE]
IC50 [3]: Not Active

Nc1n[nH]c2cc(O)[nH]c(=O)c12
IC50 [3]: Not Active
solubility [1, 7]: 1000 µM (≈ 166 µg/mL)

COCCCOc1ccnc(C[S+]([O-])c2nc3ccccc3[nH]2)c1C (configuration not stated) [RABEPRAZOLE]
IC50 [3]: Not Active
solubility [1, 7]: 1000 µM (≈ 359 µg/mL)

OC(Cn1ccnc1)c1ccc(Cl)c(Cl)c1 (configuration not stated)
IC50 ([2]; read-out: IC50): 830 µM
solubility [1, 7]: > 1000 µM

OC(Cn1ccnc1)c1ccc(Cl)cc1 (configuration not stated)
IC50 [2]: Not Active
solubility [1, 7]: > 1000 µM

Clc1ccc(COC(Cn2ccnc2)c2ccc(Cl)cc2Cl)c(Cl)c1 (configuration not stated) [MICONAZOLE]
IC50 ([3]; read-out: IC50): 6.7 µM
IC50 ([2]; read-out: IC50): 3.8 µM
IC50 [4]: Not Active
CC50 at 24 h ([5]; p815b): 10 µM
IC50 [6]: Not Active
solubility [1, 7]: 10 µM (≈ 4.16 µg/mL)

CC1=C(C#N)C(c2ccc(-c3ccc(Cl)cc3[N+](=O)[O-])o2)C(C#N)=C(C)N1
IC50 [3]: Not Active
solubility [1, 7]: 50 µM (≈ 19 µg/mL)

Clc1ccc(COC(Cn2ccnc2)c2ccc(Cl)cc2Cl)cc1 (configuration not stated) [ECONAZOLE]
IC50 [3]: 8.1 µM
IC50 [4]: Not Active
CC50 at 24 h ([5]; P815B cells): 10 µM
IC50 [6]: Not Active
solubility [1, 7]: 10 µM (≈ 3.82 µg/mL)

OC(Cn1ccnc1)c1ccc(Cl)cc1Cl (configuration not stated)
IC50 ([2]; read-out: IC50): 130 µM
solubility [1, 7]: > 1000 µM

S=c1[nH]cc(-c2ccc(Cl)cc2)o1
IC50 [3]: Not Active
solubility [1, 7]: 100 µM (≈ 21.2 µg/mL)

Oc1c(Cl)cc(Cl)cc1/C=N/c1ccc2[nH]cnc2c1
solubility [1, 7]: 10 µM (≈ 3.06 µg/mL)

NC(=S)N/N=C1\CCc2ccccc21
IC50 [3]: Not Active
solubility [1, 7]: 1000 µM (≈ 205 µg/mL)

Clc1ccc(Cn2ccnc2)c(Cl)c1
IC50 ([2]; read-out: IC50): 310 µM
solubility [1, 7]: > 1000 µM

Clc1ccc(CSC(Cn2ccnc2)c2ccc(Cl)cc2Cl)cc1 (configuration not stated) [SULCONAZOLE]
IC50 [4]: Not Active
CC50 at 24 h ([5]; p815b): 10 µM
IC50 [6]: Not Active
solubility [1, 7]: 10 µM (≈ 3.98 µg/mL)

N#C/C(=C\c1c[nH]cn1)S(=O)(=O)c1ccc(Cl)cc1
solubility [1, 7]: 1000 µM (≈ 294 µg/mL)

COC(=O)C1=C(C)NC(C)=C(C(=O)OCC(C)C)C1c1ccccc1[N+](=O)[O-] (configuration not stated) [NISOLDIPINE]
IC50 [3]: Not Active
solubility [1, 7]: 50 µM (≈ 19.4 µg/mL)

NC(=S)N/N=C/c1c(F)cccc1Cl
solubility [1, 7]: 250 µM (≈ 57.9 µg/mL)

OC(Cn1ccnc1)c1ccccc1 (configuration not stated)
IC50 [2]: Not Active
solubility [1, 7]: > 1000 µM

Clc1ccc(C(Cn2ccnc2)OCc2c(Cl)cccc2Cl)c(Cl)c1 (configuration not stated) [ISOCONAZOLE]
IC50 ([3]; read-out: IC50): 23 µM
IC50 [4]: Not Active
CC50 at 24 h ([5]; P815B cells): 10 µM
IC50 [6]: Not Active
solubility [1, 7]: 50 µM (≈ 20.8 µg/mL)

COc1cccc(N(C)C(=S)Oc2ccc3c(c2)CCCC3)n1 [LIRANAFTATE]
solubility [1, 7]: 12.5 µM (≈ 4.11 µg/mL)

Clc1ccc(CCC(Cn2ccnc2)Sc2c(Cl)cccc2Cl)cc1 (configuration not stated) [BUTOCONAZOLE]
IC50 [3]: Not Active
solubility [1, 7]: 10 µM (≈ 4.12 µg/mL)

Sc1ncnc2nc[nH]c12 [MERCAPTOPURINE ANHYDROUS]
IC50 [3]: Not Active
solubility [1, 7]: 1000 µM (≈ 152 µg/mL)

OC(Cn1ccnc1)c1cccc(Cl)c1 (configuration not stated)
IC50 [2]: Not Active
solubility [1, 7]: > 1000 µM

Oc1ccc(Br)cc1/C=N/c1ccc2[nH]nnc2c1
IC50 [3]: Not Active
solubility [1, 7]: 10 µM (≈ 3.17 µg/mL)

Clc1ccc(CCn2ccnc2)c(Cl)c1
IC50 ([2]; read-out: IC50): 820 µM
solubility [1, 7]: > 1000 µM

CCN(CC)c1ccc(NC(=O)C2CCCCC2)c(N(CC)CC)n1
solubility [1, 7]: 25 µM (≈ 8.66 µg/mL)

NNC(=O)c1nn(-c2ccccc2)c(=O)c2c(N)scc12
IC50 ([3]; read-out: IC50): 13 µM
IC50 ([2]; read-out: IC50): 15 µM
IC50 [4]: Not Active
CC50 at 24 h ([5]; P815B cells): > 25 µM
IC50 [6]: Not Active
solubility [1, 7]: 1000 µM (≈ 301 µg/mL)

Cc1cc(C2CCCCC2)n(O)c(=O)c1 [CICLOPIROX]
IC50 [3]: Not Active
solubility ([1]; buffer): 1000 µM (≈ 207 µg/mL)

c1ccc(-n2ccnc2)cc1
IC50 [2]: Not Active
solubility [1, 7]: > 1000 µM

CSC1=NNC(c2ccccn2)S1 (configuration not stated)
solubility [1, 7]: 100 µM (≈ 21.1 µg/mL)

c1ccc(-c2ccc(C(c3ccccc3)n3ccnc3)cc2)cc1 (configuration not stated) [BIFONAZOLE]
IC50 ([3]; read-out: IC50): 23 µM
IC50 [4]: Not Active
CC50 at 24 h ([5]; P815B cells): 10 µM
IC50 [6]: Not Active
solubility [1, 7]: 25 µM (≈ 7.76 µg/mL)

Clc1ccc(Sc2nc(-c3cccs3)ns2)cc1
solubility [1, 7]: 100 µM (≈ 31.1 µg/mL)

NC(=O)N/N=C/c1ccc(-c2ccc(C(F)(F)F)cc2[N+](=O)[O-])o1
IC50 [3]: Not Active
solubility [1, 7]: 50 µM (≈ 17.1 µg/mL)

Cc1cc(N/C=C(\C#N)S(=O)(=O)c2ccccc2Cl)nc(C)n1
solubility [1, 7]: 250 µM (≈ 87.2 µg/mL)

C=CCOC(Cn1ccnc1)c1ccc(Cl)cc1Cl (configuration not stated) [ENILCONAZOLE]
IC50 ([3]; read-out: IC50): 23 µM
IC50 [4]: Not Active
CC50 at 24 h ([5]; P815B cells): > 25 µM
IC50 [6]: Not Active
solubility [1, 7]: 10 µM (≈ 2.97 µg/mL)

OC(Cn1ccnc1)c1ccccc1Cl (configuration not stated)
IC50 ([2]; read-out: IC50): 200 µM
solubility [1, 7]: > 1000 µM

NNCCc1ccccc1 [PHENELZINE]
IC50 ([3]; read-out: IC50): 14 µM
IC50 [4]: Not Active
CC50 at 24 h ([5]; p815b): > 25 µM
IC50 [6]: Not Active
solubility ([1]; buffer): 1000 µM (≈ 136 µg/mL)

CN(C)/C=N/C(=S)Nc1cccc(F)c1
solubility [1, 7]: 1000 µM (≈ 225 µg/mL)

CC(C)(C)S(=O)(=O)/C(C#N)=C/c1ccsc1
solubility [1, 7]: 1000 µM (≈ 255 µg/mL)

OC(Cn1cncn1)c1ccc(Cl)cc1Cl (configuration not stated)
IC50 [2]: Not Active
solubility [1, 7]: > 1000 µM

Cc1cc(C)n2[nH]c(=S)nc2n1
solubility [1, 7]: 1000 µM (≈ 180 µg/mL)

Clc1ccc(-n2ccnc2)c(Cl)c1
IC50 [2]: Not Active
solubility [1, 7]: > 1000 µM

OC(Cc1c[nH]nn1)c1ccc(Cl)cc1Cl (configuration not stated)
IC50 [2]: Not Active
solubility [1, 7]: > 1000 µM

Clc1ccc(COCCn2ccnc2)c(Cl)c1
IC50 [2]: Not Active
solubility [1, 7]: > 1000 µM

CC(C)(N)Cc1ccccc1 [PHENTERMINE]
solubility [1, 7]: 1000 µM (≈ 149 µg/mL)

N#C/C(=C\c1c[nH]cn1)S(=O)(=O)c1cccs1
solubility [1, 7]: 1000 µM (≈ 265 µg/mL)

Cn1cc(Cl)c(/C=C(\C#N)S(=O)(=O)C(C)(C)C)n1
solubility [1, 7]: 1000 µM (≈ 288 µg/mL)

c1ccc(Cn2ccnc2)cc1 [BENZYLIMIDAZOLE]
IC50 [2]: Not Active
solubility [1, 7]: > 1000 µM

CNC(=S)N/N=C/c1ccc(OC)c(OC)c1
solubility [1, 7]: 1000 µM (≈ 253 µg/mL)

CCN(CC)C(=S)SSC(=S)N(CC)CC
IC50 [3]: Not Active
solubility [1, 7]: 100 µM (≈ 29.7 µg/mL)

COc1ccc(-c2n[nH]cc2/C=C(/C#N)S(C)(=O)=O)cc1
solubility [1, 7]: 100 µM (≈ 30.3 µg/mL)

COc1ccccc1NC(=S)N/N=C/c1ccco1
solubility [1, 7]: 250 µM (≈ 68.8 µg/mL)

Clc1ccc(CO/N=C(\Cn2ccnc2)c2ccc(Cl)cc2Cl)c(Cl)c1 [OXICONAZOLE]
IC50 ([3]; read-out: IC50): 28 µM
IC50 [4]: Not Active
CC50 at 24 h ([5]; p815b): 10 µM
IC50 [6]: Not Active
solubility [1, 7]: 20 µM (≈ 8.58 µg/mL)

Clc1ccc(C(Cn2ccnc2)OCc2csc3c(Cl)cccc23)c(Cl)c1 (configuration not stated) [SERTACONAZOLE]
IC50 ([3]; read-out: IC50): 8.4 µM
IC50 [4]: Not Active
CC50 at 24 h ([5]; P815B cells): 10 µM
IC50 [6]: Not Active
solubility [1, 7]: 10 µM (≈ 4.38 µg/mL)

Clc1ccc(C(Cn2ccnc2)OCc2cccnc2)c(Cl)c1 (configuration not stated)
IC50 ([2]; read-out: IC50): 84 µM
solubility [1, 7]: > 1000 µM

COCCCNC(=O)N/N=C/c1ccco1
solubility [1, 7]: 1000 µM (≈ 225 µg/mL)

OC(Cn1ccnc1)c1c(Cl)cccc1Cl (configuration not stated)
IC50 [2]: Not Active
solubility [1, 7]: > 1000 µM

Cc1nn(-c2ccccc2)nc1CNC(=O)c1ccc2nsnc2c1
solubility [1, 7]: 50 µM (≈ 17.5 µg/mL)

Clc1ccc(C(Cn2ccnc2)OCc2ccsc2Cl)c(Cl)c1 (configuration not stated) [TIOCONAZOLE]
IC50 [3]: Not Active
solubility ([1]; buffer): 10 µM (≈ 3.88 µg/mL)

Oc1ccccc1C(O)Cn1ccnc1 (configuration not stated)
IC50 [2]: Not Active
solubility [1, 7]: > 1000 µM

CCOC(=O)C1=C(C)NC(C)=C(C(=O)OCC)C1c1ccccc1/C=C/C(=O)OC(C)(C)C [LACIDIPINE]
solubility [1, 7]: 1 µM (≈ 0.456 µg/mL)

O=C(Cn1ccnc1)c1ccc(Cl)cc1Cl
IC50 [2]: Not Active
solubility [1, 7]: > 1000 µM

O=C(CC(=O)c1cccnc1)c1cccnc1
solubility [1, 7]: 1000 µM (≈ 226 µg/mL)

COC(Cn1ccnc1)c1ccc(Cl)cc1Cl (configuration not stated)
IC50 ([2]; read-out: IC50): 140 µM
solubility [1, 7]: > 1000 µM

O=C(c1ccc(OCCN2CCCCC2)cc1)c1c(-c2ccc(O)cc2)sc2cc(O)ccc12 [RALOXIFENE]
solubility [1, 7]: 50 µM (≈ 23.7 µg/mL)

From ChEMBL document CHEMBL3351924, “Detailed analysis and follow-up studies of a high-throughput screening for indoleamine 2,3-dioxygenase 1 (IDO1) inhibitors” (Eur J Med Chem, 2014)
